The source of these data is patent US10052306B2 (LUC THERAPEUTICS, INC., priority 2013, dated 2018).

Molecules are shown by their SMILES.

For assay [1], the target named is NR1/NR2B (Homo sapiens (Human), UniProt Q05586+Q13224). Description: Cell assay: FDSS Ca2+ influx inhibition in HEK293 cells expressing NR1/NR2B.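 Also: Fluo-8 Ca2+ signal read on Hamamatsu FDSS 6000 after glutamate, glycine and Ca2+ challenge following 10 min compound preincubation, end/baseline fluorescence ratio compared with MK801 control.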 As to conditions: Binned Activity, HEK293 cells expressing NR1/NR2B, Ca2+ influx; binned NR2B NAM IC50.
Sequence of NR1/NR2B (Homo sapiens (Human), UniProt Q05586+Q13224) (Q13224 27-1484, other chains not shown): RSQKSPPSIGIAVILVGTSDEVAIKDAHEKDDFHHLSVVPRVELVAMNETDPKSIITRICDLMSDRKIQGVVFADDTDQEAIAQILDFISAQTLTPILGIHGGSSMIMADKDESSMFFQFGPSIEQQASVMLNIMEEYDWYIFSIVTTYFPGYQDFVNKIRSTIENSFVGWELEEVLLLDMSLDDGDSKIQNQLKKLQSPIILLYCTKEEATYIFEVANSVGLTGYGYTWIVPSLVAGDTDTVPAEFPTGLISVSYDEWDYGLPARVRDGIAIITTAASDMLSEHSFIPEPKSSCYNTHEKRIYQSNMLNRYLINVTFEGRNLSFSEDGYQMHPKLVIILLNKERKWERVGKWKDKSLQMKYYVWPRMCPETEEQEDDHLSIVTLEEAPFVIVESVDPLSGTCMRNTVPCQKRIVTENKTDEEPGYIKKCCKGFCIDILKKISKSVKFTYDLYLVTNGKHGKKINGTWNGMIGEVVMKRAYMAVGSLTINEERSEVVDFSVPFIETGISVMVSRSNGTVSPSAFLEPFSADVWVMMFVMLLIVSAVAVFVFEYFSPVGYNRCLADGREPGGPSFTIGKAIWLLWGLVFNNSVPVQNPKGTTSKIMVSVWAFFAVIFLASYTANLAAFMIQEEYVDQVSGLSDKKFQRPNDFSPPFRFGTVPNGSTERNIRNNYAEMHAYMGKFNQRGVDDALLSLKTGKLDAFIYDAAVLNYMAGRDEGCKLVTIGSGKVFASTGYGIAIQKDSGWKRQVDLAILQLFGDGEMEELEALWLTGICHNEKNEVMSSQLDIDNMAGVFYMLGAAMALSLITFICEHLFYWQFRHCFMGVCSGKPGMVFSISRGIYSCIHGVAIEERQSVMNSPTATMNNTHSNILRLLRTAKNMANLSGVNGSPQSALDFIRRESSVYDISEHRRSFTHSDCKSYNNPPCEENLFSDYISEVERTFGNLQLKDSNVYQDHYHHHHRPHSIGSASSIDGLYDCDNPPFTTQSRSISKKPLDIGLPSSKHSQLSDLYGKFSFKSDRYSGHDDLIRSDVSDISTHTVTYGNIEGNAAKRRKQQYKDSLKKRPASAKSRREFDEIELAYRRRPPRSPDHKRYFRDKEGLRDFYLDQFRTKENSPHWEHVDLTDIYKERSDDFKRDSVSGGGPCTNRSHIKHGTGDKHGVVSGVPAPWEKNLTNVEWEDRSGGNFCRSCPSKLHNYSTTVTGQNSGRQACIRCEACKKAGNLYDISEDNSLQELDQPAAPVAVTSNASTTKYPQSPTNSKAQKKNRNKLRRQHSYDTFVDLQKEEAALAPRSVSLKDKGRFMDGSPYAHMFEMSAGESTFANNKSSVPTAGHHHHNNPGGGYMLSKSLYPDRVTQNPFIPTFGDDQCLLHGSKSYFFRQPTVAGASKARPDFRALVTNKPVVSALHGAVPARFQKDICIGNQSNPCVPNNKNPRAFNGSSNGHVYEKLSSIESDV
The target of assay [2] is NR1/NR2B (Homo sapiens (Human), UniProt Q13224). The assay is described as above. As to conditions: read-out: NR2B NAM IC50; HEK293 cells expressing NR1/NR2B, Ca2+ influx.
Sequence of NR1/NR2B (Homo sapiens (Human), UniProt Q13224) (Q13224 27-1484, other chains not shown): as above

For orientation: IC50 means the concentration that inhibits the measured activity by half. For `O=C(CN1C[C@@H]2C[C@@](O)(Cc3cccs3)C[C@@H]2C1)c1ccc(O)c(F)c1` [Example 220, 1-(3-fluoro-4-hydroxyphenyl)-2-(5-hydroxy-5-(thiophen-2-ylmethyl)hexahydro-cyclopenta[c]pyrrol-2(1H)-yl)ethanone], the IC50 is 0.1 to 1 µM at NR1/NR2B [1] and 0.111 µM at NR1/NR2B [2].
`O=C(CN1C[C@@H]2C[C@@](O)(Cc3ccccc3)C[C@@H]2C1)c1ccc(-c2cccnc2)cc1` [Example 267, 2-((3aR,5r,6aS)-5-benzyl-5-hydroxyhexahydrocyclo-penta[c]pyrrol-2(1H)-yl)-1-(4-(pyridin-3-yl)phenyl)ethanone]: the IC50 was greater than 10 µM on NR1/NR2B [1] and 10 µM on NR1/NR2B [2].
Consider `O=C(CN1CC2(C1)CC(O)(Cc1ccccc1)C2)c1ccc(O)cc1` [Example 342, 2-(6-benzyl-6-hydroxy-2-azspiro[3.3]heptan-2-yl)-1-(4-hydroxyphenyl)ethanone], for which the IC50 at NR1/NR2B [1] was 1 to 10 µM; on NR1/NR2B [2], 2.67 µM.
For `COC(=O)c1ccc(NC(=O)N2C[C@H]3C[C@@H](c4ccccc4)C[C@H]3C2)cc1` [Example 103, methyl 4-[({5-phenyl-octahydrocyclopenta[c]pyrrol-2-yl}carbonyl)amino]benzo-ate] the same measures were greater than 10 µM and 10 µM.
As for `CO[C@@]1(Cc2ccccc2)C[C@H]2CN(CC(=O)c3ccc(O)c(F)n3)C[C@H]2C1` [Example 197, 2-((3aR,5r,6aS)-5-benzyl-5-methoxyhexahydrocyclo-penta[c]pyrrol-2(1H)-yl)-1-(6-fluoro-5-hydroxypyridin-2-yl)ethanone], the values for the IC50 on NR1/NR2B [1] and on NR1/NR2B [2] were greater than 10 µM and 10 µM, respectively.
For `O=C(CN1C[C@@H]2C[C@@](O)(Cc3cccc(F)c3F)C[C@@H]2C1)c1ccc(O)cn1` [Example 247, 2-((3aR,5r,6aS)-5-(2,3-difluorobenzyl)-5-hydroxyhexahydrocyclo-penta[c]pyrrol-2(1H)-yl)-1-(5-hydroxypyridin-2-yl)ethanone] the same measures were 1 to 10 µM and 3.06 µM.
For `COc1cccc([C@]2(O)C[C@H]3CN(C(=O)Nc4cc(C)ccc4OC)C[C@H]3C2)c1` [Example 33, 5-hydroxy-N-(2-methoxy-5-methylphenyl)-5-(3-methoxyphenyl)-octahydrocyclopenta[c] pyrrole-2-carboxamide] the same measures were greater than 10 µM and 10 µM.
For `O=C(Nc1cccc(Cl)c1)N1C[C@H]2C[C@@H](c3ccccc3)C[C@H]2C1` [Example 106, N-(3-chlorophenyl)-5-phenyl-octahydrocyclopenta[c] pyrrole-2-carboxamide] the same measures were greater than 10 µM and 10 µM.
For the compound `O=C(CN1C[C@@H]2C[C@@](O)(c3cccnc3F)C[C@@H]2C1)c1ccc(O)cn1` [Example 244, 2-((3aR,6aS)-5-(2-fluoropyridin-3-yl)-5-hydroxyhexahydrocyclo-penta[c]pyrrol-2(1H)-yl)-1-(5-hydroxypyridin-2-yl)ethanone], the IC50 is greater than 10 µM against NR1/NR2B [1] and 10 µM on NR1/NR2B [2].
Regarding `Oc1ccc([C@@H](O)CN2C[C@@H]3C[C@@](O)(Cc4ccccc4)C[C@@H]3C2)nc1` [Example 1646, (3aR,5S,6aS)-5-benzyl-2-((S)-2-hydroxy-2-(5-hydroxypyridin-2-yl)ethyl)octahydrocyclo-penta[c]pyrrol-5-ol], the IC50 at NR1/NR2B [1] is less than 0.1 µM; on NR1/NR2B [2], 0.0381 µM.
For `Cc1cc(C)cc(C[C@]2(O)C[C@H]3CN(CC(=O)c4ccc(O)cc4)C[C@H]3C2)c1` [Example 212, 2-[(3aR,5R,6aS)-5-[(3,5-dimethylphenyl)methyl]-5-hydroxy-octahydrocyclopenta[c]pyrrol-2-yl]-1-(4-hydroxyphenyl)ethan-1-one] the same measures were greater than 10 µM and 10 µM.
The corresponding values for `O=C(Nc1cccc(C(F)(F)F)c1)N1C[C@@H]2C[C@@](O)(c3ccccc3)C[C@@H]2C1` [Example 5, 5-hydroxy-5-phenyl-N-[3-(trifluoromethyl)phenyl]-octahydrocyclopenta[c] pyrrole-2-carboxamide] are greater than 10 µM and 10 µM.
Take `Cc1cccc(N2C[C@@H]3C[C@@](O)(c4ccccc4C)C[C@@H]3C2)n1` [Example 86, 5-(2-methylphenyl)-2-(6-methylpyridin-2-yl)-octahydrocyclopenta[c] pyrrol-5-ol]: the IC50 is greater than 10 µM against NR1/NR2B [1] and 10 µM at NR1/NR2B [2].
The corresponding values for `O[C@@]1(c2ccc(F)cc2)C[C@H]2CN(c3ccccn3)C[C@H]2C1` [Example 80, 5-(4-fluorophenyl)-2-(pyridin-2-yl)-octahydrocyclopenta[c] pyrrol-5-ol] are greater than 10 µM and 10 µM.
Regarding `O=C(CCN1C[C@@H]2C[C@@](O)(Cc3ccccc3)C[C@@H]2C1)c1ccc(O)cc1` [Example 133, 3-((3aR,5r,6S)-5-benzyl-5-hydroxyhexahydrocyclo-penta[c]pyrrol-2(1H)-yl)-1-(4-hydroxyphenyl)propan-1-one], the IC50 at NR1/NR2B [1] is 1 to 10 µM; on NR1/NR2B [2], 7.05 µM.
Regarding `Cc1ccccc1[C@]1(O)C[C@H]2CN(C(=O)Nc3ccc(Cl)c(C(F)(F)F)c3)C[C@H]2C1` [Example 24, N-[4-chloro-3-(trifluoromethyl)phenyl]-5-hydroxy-5-(2-methylphenyl)-octahydrocyclopenta[c] pyrrole-2-carboxamide], the IC50 against NR1/NR2B [1] is greater than 10 µM; on NR1/NR2B [2] it was 10 µM.
For `Oc1ccc(C(O)CN2C[C@H]3C[C@@H](c4ccccc4)C[C@H]3C2)cc1` (some centres unmarked) [Example 115, 4-(1-hydroxy-2-(5-phenylhexahydrocyclo-penta[c]pyrrol-2(1H)-yl)ethyl)phenol], the figures for the IC50 against NR1/NR2B [1] and at NR1/NR2B [2] were greater than 10 µM and 10 µM, respectively.
The corresponding values for `O=C(CN1C[C@@H]2C[C@@](O)(Cc3ccc(F)c(F)c3)C[C@@H]2C1)c1ccc(O)cc1` [Example 252, 2-((3aR,5r,6aS)-5-(3,4-difluorobenzyl)-5-hydroxyhexahydrocyclo-penta[c]pyrrol-2(1H)-yl)-1-(4-hydroxyphenyl)ethanone] are less than 0.1 µM and 0.0853 µM.
With `O=C(CN1C[C@@H]2C[C@](O)(Cc3ccccc3)C[C@@H]2C1)c1ccc(O)cc1` [Example 290, 2-((3aR,5r,6aS)-5-benzyl-5-hydroxyhexahydrocyclo-penta[c]pyrrol-2(1H)-yl)-1-(4-hydroxyphenyl)ethanone], the half-inhibitory concentration (IC50) against NR1/NR2B [1] was less than 0.1 µM; on NR1/NR2B [2], 0.0766 µM.
As for `COc1ccc(C[C@]2(O)C[C@H]3CN(CC(=O)c4ccc(O)cn4)C[C@H]3C2)cc1` [Example 192, 2-[(3aR,5R,6aS)-5-hydroxy-5-[(4-methoxyphenyl)methyl]-octahydrocyclopenta[c]pyrrol-2-yl]-1-(5-hydroxypyridin-2-yl)ethan-1-one], the IC50 at NR1/NR2B [1] was 1 to 10 µM; on NR1/NR2B [2], 7.61 µM.
The corresponding values for `O=C(CN1C[C@@H]2C[C@@](O)(CC3CCCCC3)C[C@@H]2C1)c1ccc(O)cn1` [Example 206, 2-[(3aR,5R,6aS)-5-(cyclohexylmethyl)-5-hydroxy-octahydrocyclopenta[c]pyrrol-2-yl]-1-(5-hydroxypyridin-2-yl)ethan-1-one] are greater than 10 µM and 10 µM.
With `Cc1cccc(-c2cccc(C(=O)CN3C[C@@H]4C[C@@](O)(Cc5ccccc5)C[C@@H]4C3)c2)c1` [Example 276, 2-((3aR,5r,6aS)-5-benzyl-5-hydroxyhexahydrocyclo-penta[c]pyrrol-2(1H)-yl)-1-(3′-methyl-[1,1′-biphenyl]-3yl)ethanone], the IC50 on NR1/NR2B [1] is greater than 10 µM; on NR1/NR2B [2], 10 µM.
Take `Oc1ccc([C@H](O)CN2C[C@@H]3C[C@](F)(Cc4ccccc4)C[C@@H]3C2)cc1` [Example 315, 4-((S)-2-((3aR,5R,6aS)-5-benzyl-5-fluoro-hexahydrocyclopen-ta[c]pyrrol-2(1H)-yl)-1-hydroxyethyl)phenol]: the IC50 on NR1/NR2B [1] is 0.1 to 1 µM; at NR1/NR2B [2], 0.324 µM.
For `COc1ccccc1CNC(=O)N1C[C@H]2C[C@@H](c3ccccc3)C[C@H]2C1` [Example 112, N-[(2-methoxyphenyl)methyl]-5-phenyl-octahydrocyclopenta[c] pyrrole-2-carboxamide] the same measures were greater than 10 µM and 10 µM.
The corresponding values for `O=C(CN1C[C@@H]2C[C@@](O)(c3ccccc3)C[C@@H]2C1)c1cccc(F)c1` [Example 61, 1-(3-fluorophenyl)-2-{5-hydroxy-5-phenyl-octahydrocyclopenta[c]pyrrol-2-yl}ethan-1-one] are greater than 10 µM and 10 µM.
The corresponding values for `O=C(CN1C[C@@H]2C[C@@](O)(Cc3ccc(C(F)(F)F)cc3)C[C@@H]2C1)c1ccc(O)cc1` [Example 219, 2-[(3aR,5R,6aS)-5-hydroxy-5-{[4-(trifluoromethyl)phenyl]methyl}-octahydrocyclopenta[c]pyrrol-2-yl]-1-(4-hydroxyphenyl)ethan-1-one] are 0.1 to 1 µM and 0.125 µM.
Take `CC(C)(C)c1ccc([C@]2(O)C[C@H]3CN(C(=O)Nc4cccc(Cl)c4)C[C@H]3C2)cc1` [Example 56, 5-(4-tert-butylphenyl)-N-(3-chlorophenyl)-5-hydroxy-octahydrocyclopenta[c] pyrrole-2-carboxamide]: the IC50 at NR1/NR2B [1] is greater than 10 µM; on NR1/NR2B [2] it was 10 µM.
With `COc1ccc(NC(=O)N2C[C@@H]3C[C@@](O)(c4ccccc4)C[C@@H]3C2)cc1` [Example 1, 5-hydroxy-N-(4-methoxyphenyl)-5-phenylhexahydrocyclopenta[c]pyrrole-2(1H)-carboxamide], the IC50 against NR1/NR2B [1] was greater than 10 µM; on NR1/NR2B [2] it was 10 µM.
